Measured values taken from ChEMBL document CHEMBL1144798, “New chemotypes for cathepsin K inhibitors” (Bioorg Med Chem Lett, 2008).

Experiments:
Cathepsin K = molecular target: T1, Cathepsin K (Homo sapiens, UniProt P43235); assay: Inhibition of human recombinant cathepsin K by fluorescence assay
T1 sequence (P43235 whole entry): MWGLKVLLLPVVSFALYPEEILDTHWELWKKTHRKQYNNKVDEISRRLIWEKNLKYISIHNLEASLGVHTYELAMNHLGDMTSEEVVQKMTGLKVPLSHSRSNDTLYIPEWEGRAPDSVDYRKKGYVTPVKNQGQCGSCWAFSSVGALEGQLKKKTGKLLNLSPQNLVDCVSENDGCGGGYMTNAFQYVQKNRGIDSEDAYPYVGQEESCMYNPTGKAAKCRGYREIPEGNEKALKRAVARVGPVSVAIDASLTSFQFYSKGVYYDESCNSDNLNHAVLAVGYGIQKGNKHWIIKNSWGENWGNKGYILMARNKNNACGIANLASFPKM

Procathepsin L = Procathepsin L (Homo sapiens, UniProt P07711); assay: Inhibition of human recombinant cathepsin L by fluorescence assay
Procathepsin L, sequence (P07711 whole entry): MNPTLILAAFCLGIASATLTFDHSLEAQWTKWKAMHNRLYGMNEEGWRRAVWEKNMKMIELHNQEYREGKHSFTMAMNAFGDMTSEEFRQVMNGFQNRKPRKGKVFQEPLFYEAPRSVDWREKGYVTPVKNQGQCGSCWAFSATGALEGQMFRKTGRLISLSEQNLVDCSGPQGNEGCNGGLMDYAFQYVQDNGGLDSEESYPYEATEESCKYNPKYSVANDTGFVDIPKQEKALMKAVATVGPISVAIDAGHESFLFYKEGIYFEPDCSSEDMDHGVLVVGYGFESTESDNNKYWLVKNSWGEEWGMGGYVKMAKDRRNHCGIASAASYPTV

Cathepsin S = Cathepsin S (Homo sapiens, UniProt P25774); assay: Inhibition of human recombinant cathepsin S by fluorescence assay
Cathepsin S, sequence (P25774 whole entry): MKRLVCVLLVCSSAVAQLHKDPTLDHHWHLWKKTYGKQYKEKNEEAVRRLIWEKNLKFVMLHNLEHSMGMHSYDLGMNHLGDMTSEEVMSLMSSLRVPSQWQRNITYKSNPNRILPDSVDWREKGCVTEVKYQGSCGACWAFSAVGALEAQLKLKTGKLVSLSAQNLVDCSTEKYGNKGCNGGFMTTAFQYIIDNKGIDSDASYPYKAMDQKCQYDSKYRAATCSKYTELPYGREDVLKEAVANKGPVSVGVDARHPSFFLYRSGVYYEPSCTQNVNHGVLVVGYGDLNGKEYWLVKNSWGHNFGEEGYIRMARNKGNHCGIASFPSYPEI

SMILES	IC50 (Cathepsin K) [nM]	IC50 (Procathepsin L) [nM]	IC50 (Cathepsin S) [nM]
CC(C)(C)CN(Cc1ccc(Cn2cncn2)cc1)c1ccnc(C#N)n1	4.8	> 1000	> 1000
CN1CCN(c2ccc(CC#Cc3cnc(C#N)nc3NCC(C)(C)C)cc2)CC1	7.1	980	760
CC(C)(C)CN(Cc1ccccc1)c1ccnc(C#N)n1	69	> 1000	> 1000
CN1CCN(CC#Cc2ccc(CN(CC(C)(C)C)c3ccnc(C#N)n3)cc2)CC1	3.8	> 1000	> 1000
CC(C)(C)CNc1nc(C#N)ncc1C#CCOc1cccnc1	8.6	1000	460
CC(C)(C)CN(Cc1ccc(C#CCN2CCC(N3CCCCC3)CC2)cc1)c1ccnc(C#N)n1	3.6	> 1000	> 1000
CC(C)(C)CN(Cc1ccc(C#CCn2cncn2)cc1)c1ccnc(C#N)n1	8.6	> 1000	> 1000
CC(C)(C)CN(Cc1ccc(C#CCN2CCCCC2)cc1)c1ccnc(C#N)n1	7.3	> 1000	> 1000
CC(=O)N1CCN(CC#Cc2ccc(CN(CC(C)(C)C)c3ccnc(C#N)n3)cc2)CC1	6.4	> 1000	> 1000
CC(C)(C)CN(Cc1ccc(I)cc1)c1ccnc(C#N)n1	19	> 1000	> 1000

Further lines, results first:

IC50 (Cathepsin K) [nM]	IC50 (Procathepsin L) [nM]	IC50 (Cathepsin S) [nM]	SMILES
7.1	> 1000	> 1000	COc1ccc(S(=O)(=O)N2CCN(CC#Cc3cnc(C#N)nc3NCC(C)(C)C)CC2)cc1
3.2	150	840	CC(C)(C)CNc1nc(C#N)ncc1C#CCN1CCc2ccccc2C1
10	> 1000	920	CC(C)(C)CNc1nc(C#N)ncc1C#CCN1Cc2ccccc2C1
7.2	190	68	CC(C)(C)CNc1nc(C#N)ncc1C#CCn1cnc(Cl)c1Cl
3.7	> 1000	800	CC(C)(C)CNc1nc(C#N)ncc1C#CCN1CCN(S(=O)(=O)CCCCl)CC1
